Measurements: PubChem BioAssay (NCI)
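96-well plates; 48 h exposure; 5 concentrations. Endpoints by linear interpolation between flanking doses. Not reached: highest tested concentration assigned. GI50 marks 50% less growth. At the TGI there is no net growth.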

Experiments:
Assay in all cases: inhibition of tumour cell growth, NCI panel, 48 h
[1] = test system: MDA-MB-231 breast
[2] = test system: NCI/ADR-RES ovarian
[3] = test system: MCF7 breast
[4] = test system: HS 578T breast
[5] = test system: MDA-MB-435
[6] = test system: PC-3 prostate
[7] = test system: T-47D breast

Row | SMILES | GI50 [1] [µM] | TGI [1] [µM] | GI50 [2] [µM] | TGI [2] [µM] | GI50 [3] [µM] | TGI [3] [µM] | GI50 [4] [µM] | TGI [4] [µM] | GI50 [5] [µM] | TGI [5] [µM] | GI50 [6] [µM] | TGI [6] [µM] | GI50 [7] [µM] | TGI [7] [µM]
1 | CCC(c1cccc(O)c1)C(CC)c1cccc(O)c1 (stereo unspecified) | 6.21 | 19.6 | 3.53 | 14.1 | 1.62 | 8.04 | 1.96 | 9.77 | 2.15 | 6.44 | 2.28 | 12.5 | 3.54 | 17.1
2 | COc1ccc(Cl)cc1Nc1nc(C(F)(F)F)ccc1C(=O)N/N=C/c1cc(OC)c(OC)c(OC)c1 | 2.21 | 8.66 | 3.35 | 21.6 | 1.52 | 7.46 | 1.94 | 4.67 | 2.41 | 7.72 | 2.4 | 17.4 | 1.39 | 8.03
3 | C/C(=N\NC(N)=S)c1nc2ccc(Cl)cc2[nH]1 | 3.53 | 37.9 | 1.21 | > 50 | 1.64 | > 50 | 12.2 | > 50 | 2.95 | 24.6 | 4.05 | 48.2 | 4.48 | > 50
4 | Cn1c(=O)c2c(ncn2CN2CCN(Cn3cnc4c3c(=O)n(C)c(=O)n4C)CC2)n(C)c1=O | – | > 100 | – | > 100 | – | 35.7 | – | > 100 | – | > 100 | – | > 100 | – | 89.1
5 | COc1ccc(Cn2c(Cl)c(/C=C3/C(=O)Nc4ccccc43)c3cc(OC)c(C)cc32)cc1 | 4.22 | > 100 | 2 | 4.77 | 5.87 | > 100 | 2.32 | > 100 | 2.06 | 6.08 | 6.22 | > 100 | 25 | > 100
6 | CSc1ccc(/C=C2\C=C(CC(=O)NCc3ccc(C(=O)c4ccccc4)cc3)c3cc(F)ccc32)cc1 | 0.0643 | 5.3 | 0.0328 | 0.187 | – | 12.2 | 0.0457 | 13 | < 0.0112 | 0.0515 | 0.0473 | 13.1 | 1.99 | 44
7 | OCC1OC(n2cnc3c(/C=C(/O)c4ccccc4)ncnc32)C(O)C1O (stereo unspecified) | – | > 30 | – | > 92 | – | > 100 | – | > 100 | – | > 100 | – | > 62.4 | – | > 100
8 | COc1cc(Cn2c(-c3nonc3N)nc3ccccc32)ccc1C | 1.02 | 38.1 | 0.362 | > 37.4 | 0.348 | > 100 | 0.326 | 24.4 | 0.168 | 0.642 | 0.399 | > 100 | 0.574 | > 100
9 | O=C1c2ccccc2-n2c1nc1ccccc1c2=O | – | > 100 | – | > 100 | – | 25.2 | – | 45.2 | – | 3.44 | – | > 60.1 | – | 87.4
10 | Cc1cc(-c2nnc3n2CCCCC3)c(C)n1-c1ccc(Cl)c(Cl)c1 | 15.2 | 33.5 | 11.9 | 47.8 | 4.89 | 20.2 | 16.9 | 47 | 10.3 | 26.9 | 11 | 57.1 | 6.03 | 30.8
11 | CC(C)Oc1cc(O)c2c(c1)OCC=C2CCC(=O)O | – | > 100 | – | > 100 | – | 40.2 | – | > 100 | – | 66 | – | > 100 | – | > 100
12 | COC(=O)C1=C(C(=O)OC)SC(=C(Cl)C(=S)Sc2ccccc2N)S1 | 16.6 | 42.9 | 25.5 | 62.1 | 16.7 | 34 | 19 | 66.2 | 29.3 | > 100 | 29.6 | > 100 | 39.6 | > 100
13 | N#C[C@@H]1C(n2ccc(N)nc2=O)O[C@H](CO)[C@H]1O (stereo partly specified) | > 100 | > 100 | 12.9 | > 100 | 0.993 | > 100 | > 100 | > 100 | > 73 | > 100 | 97.4 | > 100 | > 100 | > 100
14 | CC1CCN(CC(=O)N2c3ccccc3Sc3cc4ccccc4cc32)CC1 | – | > 100 | – | > 100 | – | > 100 | – | > 100 | – | > 100 | – | > 100 | – | > 100
15 | COC(=O)CCC1=C(C)/C(=C/c2[nH]c(-c3ccc[nH]3)cc2OC)N=C1C | 0.223 | 1.35 | 0.434 | 12.3 | 0.331 | 1.43 | 1.04 | 9.01 | 0.454 | 2.5 | 0.564 | 12 | 0.378 | 1.86
16 | O=C1CCCN1CC#CCN1CCCC1 | > 100 | > 100 | > 100 | > 100 | > 100 | > 100 | > 100 | > 100 | > 100 | > 100 | > 100 | > 100 | > 100 | > 100
17 | CCCCCCN(CCCCCC)CC(O)c1ccc2c3c(cccc13)CC2 (stereo unspecified) | 6.86 | 21.3 | 10.6 | 26.2 | 6.01 | 20.8 | 10.8 | 27.2 | 3.11 | 15.2 | 10.9 | 28.7 | 3.28 | 16.6
18 | CC(=O)Nc1ccc(S(=O)(=O)NNC(=O)c2cccnc2Nc2ccc(Cl)cc2)cc1 | 41.6 | > 100 | – | – | 4.34 | > 100 | 23.9 | > 100 | 3.2 | > 100 | 29.2 | > 100 | 6.28 | > 100
19 | C=C1C(=O)O[C@H]2C[C@@]3(C)[C@H](O)CCC(=C)[C@@H]3[C@@H](OC(C)=O)[C@H]12 | – | 36.6 | – | 76.8 | – | 9.84 | – | 38.5 | – | 44.4 | – | 37.3 | – | 29.5
